Results published in PubChem BioAssay (NCI).
“And” between values parts separate entries of the source, which are not always exact repeats. Equal values may be shown once.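 Briefly, cells in 96-well plates were exposed to five compound concentrations for 48 h, and endpoints were estimated by linear interpolation. The concentration for 50% growth inhibition is given as GI50. TGI: total growth inhibition.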

Columns and labels:
Experiment in all cases: DTP human tumour cell line panel, 48 h
A549 NSCLC = tested on: A549 NSCLC
HCT-116 colon = tested on: HCT-116 colon
NCI-H226 lung = tested on: NCI-H226 lung
NCI/ADR-RES ovarian = tested on: NCI/ADR-RES ovarian
OVCAR-3 ovarian = tested on: OVCAR-3 ovarian
OVCAR-5 ovarian = tested on: OVCAR-5 ovarian
SK-MEL-28 melanoma = tested on: SK-MEL-28 melanoma
SK-MEL-5 melanoma = tested on: SK-MEL-5 melanoma
SN12C renal = tested on: SN12C renal
SNB-19 CNS = tested on: SNB-19 CNS

| Compound | TGI (A549 NSCLC) | TGI (HCT-116 colon) | TGI (NCI-H226 lung) | TGI (NCI/ADR-RES ovarian) | TGI (OVCAR-3 ovarian) | TGI (OVCAR-5 ovarian) | TGI (SK-MEL-28 melanoma) | TGI (SK-MEL-5 melanoma) | TGI (SN12C renal) | TGI (SNB-19 CNS) | GI50 (A549 NSCLC) | GI50 (HCT-116 colon) | GI50 (NCI-H226 lung) | GI50 (NCI/ADR-RES ovarian) | GI50 (OVCAR-5 ovarian) | GI50 (SK-MEL-28 melanoma) | GI50 (SK-MEL-5 melanoma) | GI50 (SN12C renal) | GI50 (SNB-19 CNS) | GI50 (OVCAR-3 ovarian) |
| --- | --- | --- | --- | --- | --- | --- | --- | --- | --- | --- | --- | --- | --- | --- | --- | --- | --- | --- | --- | --- |
| O=C1OC2(c3ccccc31)c1cc(I)c(O)c(I)c1Oc1c2cc(I)c(O)c1I | > 100 µM | > 100 µM | > 100 µM | > 100 µM | > 100 µM | > 100 µM | > 100 µM | > 100 µM | > 100 µM | > 100 µM |  |  |  |  |  |  |  |  |  |  |
| C[C@]12CC[C@H]3[C@@H](CC=C4C[C@@H](O)CC[C@@]43C)[C@@H]1C/C(=C\c1cccc(OCCCn3ccnc3)c1)[C@@H]2O | 28.5 µM | 21.1 µM | 43.4 µM | 99.7 µM | 29.9 µM | 32.9 µM | 29.1 µM | 20.4 µM | 38 µM | 37.6 µM | 12.9 µM | 5.99 µM | 16.1 µM | 20.4 µM | 17.2 µM | 12.2 µM | 6.26 µM | 15.8 µM | 17.1 µM |  |
| CCCN1C(=O)/C(=C/c2ccc(O)cc2)SC1=Nc1ccccc1 | 58.2 µM | 31.3 µM | 54.1 µM | 36.4 µM | 33.8 µM | 44.2 µM | 50.9 µM | 46 µM | 35.5 µM | 46.5 µM | 23.9 µM | 17.5 µM | 30.3 µM | 20.4 µM | 21.7 µM | 27.7 µM | 22.8 µM | 18.4 µM | 21.1 µM | 17.8 µM |
| O=C(/C=C/C12c3ccccc3C(c3ccccc31)C1C(=O)NC(=O)C12)c1ccco1 (centres undefined) | 10.1 µM | 3.74 µM | 9.85 µM | 6.42 µM | 5.8 µM | 10.7 µM | 4.73 µM | 3.28 µM | 11.3 µM | 5.17 µM | 3.25 µM | 1.69 µM | 3.03 µM | 2.38 µM | 3.15 µM | 2.37 µM | 1.77 µM | 3.21 µM | 2.19 µM | 2.47 µM |
| CC1=Cc2cc3[n-]c(cc4nc(cc5[n-]c(cc1n2)c(C)c5CCC(=O)O)C(CCC(=O)O)=C4C)cc3C.[Cu+2] | > 100 µM | > 100 µM | > 87.2 µM | > 100 µM | > 1 µM and 92.3 µM | > 100 µM | > 1 µM and 12.9 µM | > 1 µM and 31.5 µM | > 100 µM | > 1 µM and 32.9 µM | > 1 µM and 70.9 µM | > 1 µM and 33.4 µM | > 1 µM and 62 µM | 37.2 µM | > 100 µM | > 1 µM and 4.4 µM | > 1 µM and 14.5 µM | > 1 µM and 57.7 µM | > 1 µM and 11.9 µM | > 1 µM and 26.5 µM |
| CCOC(=O)CCc1c(C)c2ccc(O)cc2oc1=O | > 100 µM | > 100 µM | > 100 µM | > 100 µM | > 100 µM | > 100 µM | > 100 µM | > 100 µM | > 100 µM | > 100 µM |  |  |  |  |  |  |  |  |  |  |
| CCOC(=O)c1ccc2[nH]c(Cc3[nH]c4ccc(C(=O)OCC)cc4c3C)c(C)c2c1 | 5.87 µM | 8.58 µM | 23.2 µM | 18.5 µM | 17.6 µM | 53.8 µM | 22.8 µM | 14.5 µM | 24.7 µM | 25.9 µM | 1.05 µM | 0.556 µM | 4.7 µM | 2.52 µM | 8.94 µM | 5.26 µM | 1.22 µM | 4.92 µM | 3.9 µM | 3.06 µM |
| N#Cc1c(SCc2ccccc2)nc2[nH]c(=S)[nH]c(=S)c2c1-c1ccco1 | > 100 µM | > 100 µM | 52.8 µM | > 100 µM | 73.5 µM | > 100 µM | > 100 µM | > 100 µM | 36.1 µM | > 100 µM | 64.1 µM | 21.6 µM | 15.1 µM | 26.6 µM | 66.4 µM | > 100 µM | 23.9 µM | 15.7 µM | 62.2 µM | 25.8 µM |
| CCC(=O)Nc1ccc2c(c1)CN1C(=O)c3ccccc3C1=N2 | > 100 µM | > 100 µM | > 100 µM | > 100 µM | > 100 µM | > 100 µM | > 100 µM | > 100 µM | > 100 µM | > 100 µM | > 100 µM | > 100 µM | > 100 µM | > 100 µM | > 100 µM | > 100 µM | > 100 µM | > 100 µM | > 100 µM | > 100 µM |
